Values quoted from earlier work as cited in US20180015164A1, “A Composition Containing Protective Agent for Singlet Oxygen and A Preparation Method therefor” (Nanjing University, priority 2016, published 2018).

conditions: in the named solution (solvent / protective agent)

SMILES	lifetime of singlet oxygen [μs]
FC(Cl)(Cl)Cl [Freon 11]	1000±200
S=C=S [carbon disulfide]	200±60
ClC(Cl)Cl [chloroform]	60±15
[2H]O[2H] [deuteroxide]	20
CCO [ethyl alcohol]	12
CCCCCC [hexane]	17
CO [methyl alcohol]	7
FC(F)(F)C(F)(F)C(F)(F)C(F)(F)C(F)(F)C(F)(F)F [perfluorohexane]	600±200
O [water]	2
